Laboratory results published in patent US6852761B2, “Polycyclic aryl and heteroaryl substituted benzenes useful for selective inhibition of the coagulation cascade” (Pharmacia Corporation, priority 2000, dated 2005).

How the values were obtained:
[1] = biological target: T1, human factor Xa (Homo sapiens, UniProt P00742); assay: Xa Assay; format: biochemical
T1 construct: leads from XII to XIIa to XIa to IXa and to the conversion of X to Xa; purchased Enzyme Research Laboratories, South Bend Ind
T1 sequence (P00742 235-488 limits assumed): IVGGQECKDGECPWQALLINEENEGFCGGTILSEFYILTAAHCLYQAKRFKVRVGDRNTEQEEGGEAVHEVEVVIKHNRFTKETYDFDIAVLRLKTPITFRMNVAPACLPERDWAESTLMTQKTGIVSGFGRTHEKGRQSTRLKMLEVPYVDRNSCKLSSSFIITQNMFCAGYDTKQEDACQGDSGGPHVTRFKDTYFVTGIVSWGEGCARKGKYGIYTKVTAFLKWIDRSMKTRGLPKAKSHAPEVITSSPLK
T1 sequence (P00742 41-179 limits assumed): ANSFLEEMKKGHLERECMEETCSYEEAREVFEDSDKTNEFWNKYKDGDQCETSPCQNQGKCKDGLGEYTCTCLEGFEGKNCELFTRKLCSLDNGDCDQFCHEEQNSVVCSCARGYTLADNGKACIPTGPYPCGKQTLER
Method: 0.3 nM human factor Xa and 0.15 mM N-α-Benzyloxycarbonyl-D-arginyl-L-glycyl-L-arginine-p-nitroaniline-dihydrochloride (S-2765) are added to a 96-well assay plate containing either inhibitor or buffer (50 mM Tris-HCl, pH 8.0, 100 mM NaCl, 0.1% BSA). The reaction, in a final volume of 100 ul is measured immediately at 405 nm to determine background absorbance. The plate is incubated at room temperature for 60 min, at which time the rate of hydrolysis of the substrate is measured by monitoring the reaction at 405 nm for the release of p-nitroaniline. Percent inhibition of Xa activity is calculated from OD405 nm value from the experimental and control sample.
Recombinant soluble TF, consisting of amino acids 1-219 of the mature protein sequence was expressed in E. coli and purified using a Mono Q Sepharose FPLC. Recombinant human VIIa was purchased from American Diagnostica, Greenwich Conn. and chromogenic substrate N-Methylsulfonyl-D-phe-gly-arg-p-nitroaniline was prepared by American Peptide Company, Inc., Sunnyvale, Calif. Factor Xa was obtained from Enzyme Research Laboratories, South Bend Ind., thrombin from Calbiochem, La Jolla, Calif., and trypsin and L-BAPNA from Sigma, St. Louis Mo. The chromogenic substrates S-2765 and S-2238 were purchased from Chromogenix, Sweden.

[2] = biological target: T2, recombinant soluble tissue factor and recombinant human factor VIIa (TF-VIIA) (Homo sapiens, UniProt P08709); assay: TF-VIIa Assay; format: biochemical
T2 construct: conversion of coagulation factor VII to VIIa by Xa; purchased American Diagnostica, Greenwich Conn; (factor VIIa); host or cells: soluble TF made in house in E. coli
T2 sequence (P08709 213-466 limits assumed): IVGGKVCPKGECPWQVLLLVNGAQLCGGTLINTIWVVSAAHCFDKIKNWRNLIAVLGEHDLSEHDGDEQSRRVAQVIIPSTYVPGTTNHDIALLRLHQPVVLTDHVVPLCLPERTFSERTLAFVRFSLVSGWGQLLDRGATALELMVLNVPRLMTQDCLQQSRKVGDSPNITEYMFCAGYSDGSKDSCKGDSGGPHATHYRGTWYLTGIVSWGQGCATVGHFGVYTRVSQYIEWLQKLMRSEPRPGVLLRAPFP
T2 sequence (P08709 61-212 limits assumed): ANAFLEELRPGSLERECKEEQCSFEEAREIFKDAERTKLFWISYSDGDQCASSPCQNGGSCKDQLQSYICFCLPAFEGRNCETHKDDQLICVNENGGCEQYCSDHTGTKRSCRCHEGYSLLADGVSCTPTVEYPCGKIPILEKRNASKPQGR
T2 sequence (P13726 33-251 partner limits assumed): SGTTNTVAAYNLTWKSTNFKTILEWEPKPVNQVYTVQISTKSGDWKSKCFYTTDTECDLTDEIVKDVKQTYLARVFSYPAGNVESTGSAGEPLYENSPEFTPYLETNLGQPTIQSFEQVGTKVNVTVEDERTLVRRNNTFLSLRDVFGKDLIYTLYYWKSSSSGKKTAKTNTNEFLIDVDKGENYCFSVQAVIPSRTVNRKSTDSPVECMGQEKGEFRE
Method: In this assay 100 nM recombinant soluble tissue factor and 2 nM recombinant human factor VIIa are added to a 96-well assay plate containing 0.4 mM of the substrate, N-Methylsulfonyl-D-phe-gly-arg-p-nitroaniline and either inhibitor or buffer (5 mM CaCl2,50 mM Tris-HCl, pH 8.0, 100 mM NaCl, 0.1% BSA). The reaction, in a final volume of 100 ul is measured immediately at 405 nm to determine background absorbance. The plate is incubated at room temperature for 60 min, at which time the rate of hydrolysis of the substrate is measured by monitoring the reaction at 405 nm for the release of p-nitroaniline. Percent inhibition of TF-VIIa activity is calculated from OD405nm value from the experimental and control sample.

N=C(N)NCCCCCNC(=O)Cc1c(F)ccc(NS(=O)(=O)Cc2ccccc2)c1F [Example 15] showed an IC50 [1] greater than 30 µM and an IC50 [2] greater than 30 µM.

Compound COc1c(NC(C)C)ccc(-c2ccccc2)c1CC(=O)NCc1ccc(C(=N)N)cc1 [Example 22] has an IC50 [1] greater than 30 µM.

CN(C)c1ccc(CNC(=O)c2cc(NS(=O)(=O)Cc3ccccc3)ccc2Sc2ccccc2)cc1 [Example 2] showed an IC50 [1] greater than 30 µM and an IC50 [2] greater than 30 µM.

O=C(NCc1ccncc1)c1cc(NS(=O)(=O)Cc2ccccc2)ccc1Sc1ccccc1 [Example 3] showed an IC50 [1] greater than 30 µM and an IC50 [2] greater than 30 µM.

Compound O=C(NCC1CCNCC1)c1cc(NS(=O)(=O)Cc2ccccc2)ccc1Sc1ccccc1 [Example 1] has an IC50 [2] greater than 30 µM.

Work on CN(C)c1ccc(CNC(=O)Cc2c(F)ccc(NS(=O)(=O)Cc3ccccc3)c2F)cc1 [Example 10] yielded an IC50 [2] greater than 30 µM.

For O=C(Cc1c(F)ccc(NS(=O)(=O)Cc2ccccc2)c1F)NCCCn1ccnc1 [Example 12], the IC50 [1] was greater than 30 µM and the IC50 [2] was greater than 30 µM.

N=C(N)c1ccc(CNC(=O)Cc2c(-c3ccccc3)ccc(NCCc3ccccc3)c2F)cc1 [Example 17] showed an IC50 [1] greater than 30 µM.

Compound N=C(N)c1ccc(CNC(=O)Cc2c(-c3ccccc3)ccc(NCCc3ccccc3)c2O)cc1 [Example 19] has an IC50 [1] greater than 30 µM.

O=C(Cc1c(F)ccc(NS(=O)(=O)Cc2ccccc2)c1F)NCC1CCNCC1 [Example 9] showed an IC50 [1] greater than 30 µM and an IC50 [2] greater than 30 µM.

For O=C(Cc1c(F)ccc(NS(=O)(=O)Cc2ccccc2)c1F)NCc1ccncc1 [Example 11], the IC50 [2] was greater than 30 µM.

N=C(N)c1cccc(CNC(=O)Cc2c(F)ccc(NS(=O)(=O)Cc3ccccc3)c2F)c1 [Example 13] showed an IC50 [2] greater than 30 µM.

N=C(N)c1ccc(CNC(=O)c2cc(NS(=O)(=O)Cc3ccccc3)ccc2Sc2ccccc2)cc1 [Example 4] gave an IC50 [1] greater than 30 µM and an IC50 [2] greater than 30 µM.

For N=C(N)c1ccc(CNC(=O)Cc2c(F)ccc(NS(=O)(=O)Cc3ccccc3)c2F)cc1 [Example 14], the IC50 [1] was greater than 30 µM and the IC50 [2] was greater than 30 µM.
